What was measured:
[1] = molecular target: T1, GDP loaded KRAS4b(1-169) H95C/C118S mutant (Homo sapiens, UniProt P01116, C118S/H95C); assay: MALDI-TOF percentage labeling of C95, GDP-loaded protein; assay type: binding; details: for level of covalent labeling to C95 (percent of labeling), GDP, 3 h: 3 h incubation; for level of covalent labeling to C95 (percent of labeling), GDP, 6 h: 6 h incubation; for level of covalent labeling to C95 (percent of labeling), GDP, 24 h: 24 h incubation
T1 construct: loaded KRAS4b(1-169) H95C/C118S mutant
Description: (§1) Table 1 is a table summarizing levels of covalent labeling to C95 as analyzed by MALDI-TOF MS for a series of synthesized compounds. […] Both species, GDP or nonhydrolyzable analogue of GTP—GppNHp-loaded KRAS4b H95C/C118S, were then reacted with a panel of epoxides and analyzed by MALDI-TOF MS to assess level of covalent modification to C95 after 3 h, 6 h, or 24 h of incubation with the protein. All R isomers show enhanced activity compared to S isomers.
(§2) Example 18: Percentage Labeling Determination for Compounds Targeting KRAS4b Residue 95 by Matrix Assisted Laser Desorption Ionization-Time of Flight Mass Spectrometry (MALDI-TOF)
(§3) The assay uses four tool proteins: • Guanosine diphosphate (GDP) loaded KRAS4b(1-169) H95C/C118S mutant • 5′-Guanylyl imidodiphosphate (GppNHp) loaded KRAS4b(1-169) H95C/C118S mutant • GDP loaded KRAS4b(1-169) C118S mutant • GppNHp loaded KRAS4b(1-169) C118S mutant
(§4) 20 μM Solution of protein in 20 mM HEPES, 150 mM NaCl, 1 mM MgCl2, pH 7.3 buffer was prepared freshly before assay. 20 μl Aliquots of protein were dispensed on 384 well polypropylene plate, then tested compounds (0.8 μl, 10 mM in DMSO) were added to appropriate wells. For each reaction/assay three blank and three control samples were prepared by mixing 20 μl of protein solution with 0.8 μl DMSO or 10 mM standards (compounds 994566 and FB9). The wells content was carefully mixed by aspiration, then plate was sealed by adhesive cover, centrifuged at 2000 g for 1 minute and kept in dark at room temperature for 3, 6 (or 8) and 24 h.
(§5) Before each assay MALDI target (Bruker MPT 384 ground steel BC) was pre-treated by pipetting on each spot 1 μl of saturated sinapinic acid in acetonitrile (ACN).
(§6) After 24 h reaction, 2 μl of reaction mixtures were pipetted out into 20 μl MALDI matrix solution (saturated solution of sinapinic acid in 1:1 ACN:water solution containing 0.75% trifluoroacetic acid (TFA)) deposited on 384 well polypropylene plate. Resulting solution was mixed by aspiration, centrifuged at 2000 g for 1 minute, then 2 μl aliquots were dispensed on pre-treated MALDI target using Beckman Coulter Biomek FX^P 96/Span-8 Laboratory Automation Workstation. Finally, the MALDI target was dried under mild vacuum to produce spots with fine crystalline structure.
MALDI-TOF measurements were performed on Bruker Daltonics ultraflex III TOF-TOF mass spectrometer using linear mode and mass range from 5 to 45 kDa. Detector gain was set to ×9 (1734 V), sample rate to 1 GS/s, smart beam parameter set: 3_medium was used, and the laser frequency was 66.7 Hz. Spectra were automatically collected using custom AutoXecute method. Laser power was auto-adjusted using fuzzy control. The peak selection range was set to be between 19000 and 20200 Da. Peak evaluation uses half width parameter set to be smaller than 30 Da. Fuzzy control used Proteins/Oligonucleotides protocol with minimum half width ⅙ times above threshold. Up to 1500 shots were collected in 500 shot steps. Dynamic termination was implemented to finish data collection when peak intensity was reaching value of 1200 [a.u.].
Spectra were smoothed by SavitzkyGolay algorithm using 5 m/z width and three cycles. Centroid peak detection algorithm was used with signal to noise threshold set to 4, relative intensity threshold 2%, minimum intensity threshold 20 [a.u.], peak width 10 m/z and TopHat baseline subtraction. Peak intensity and area under the peak were evaluated and recorded for all peaks between 19248 Da and 20500 Da for H95/C118 mutant and 19285 Da and 20500 Da for C118 mutant respectively.
Percent of labeling was calculated using followed equation:
[formula] Similar results were obtained when peak area instead of peak height was used for calculations, however peak height method produced more reliable data in case of poor quality spectra.

[2] = molecular target: T2, GppNHp loaded KRAS4b(1-169) H95C/C118S mutant (Homo sapiens, UniProt P01116, C118S/H95C); assay: MALDI-TOF percentage labeling of C95, GppNHp-loaded protein; assay type: binding; details: for level of covalent labeling to C95 (percent of labeling), GppNHp, 3 h: 3 h incubation; for level of covalent labeling to C95 (percent of labeling), GppNHp, 6 h: 6 h incubation; for level of covalent labeling to C95 (percent of labeling), GppNHp, 24 h: 24 h incubation
T2 construct: loaded KRAS4b(1-169) H95C/C118S mutant
Description: as §1
150 to 300 μM solution of GDP loaded protein in KRAS buffer was prepared (20 mM HEPES, 150 mM NaCl, 1 mM MgCl2, 0.05 mM TCEP, pH 7.3). To this was added vigorously 1500×molar excess of 1 M ammonium sulfate in KRAS buffer, and the combination mixed gently by inverting tube. Next was prepared 250 mM solution of GppNHp (150 molar excess of GppNHp to protein; keep it on ice). To the protein was pipetted 10% of prepared GppNHp solution, then suspension of alkaline phosphatase from calf intestine on agarose was added (Sigma-Aldrich, P0726) to have 2 units of enzyme per each mg of protein. The reaction mixture was incubated at room temperature, rotating end-over for 1 h 30 min. The alkaline phosphatase was removed on agarose beads by filtering solution to a new vial using Millex-GP syringe filter. Remaining solution of GppNHp was added and incubated for additional 45 min. At the end of the exchange the protein was filtered again, placed on ice, and purified on NGC medium-pressure chromatography system (Bio-Rad). Five in-lane connected desalting columns (5×GE Healthcare HiTrap Desalting columns 5 ml, 17-1408-01) were used with isocratic elution of KRAS buffer at 4 ml/min. The protein elution was monitored at 280 nm. The concentration of final protein was evaluated by NanoDrop 2000 spectrophotometer (Thermo Fisher) using molar attenuation coefficient ε=19685 l·mol^−1·cm^−1. The quality of the protein was confirmed by MALDI and the exchange rate was assessed by HPLC based assay.
as §2, §3, §4, §5, §6
MALDI-TOF measurements were performed on Bruker Daltonics ultraflex III TOF-TOF mass spectrometer using linear mode and mass range from 5 to 45 kDa. […]

| SMILES | level of covalent labeling to C95 (percent of labeling), GDP, 3 h [1] [%] | level of covalent labeling to C95 (percent of labeling), GDP, 6 h [1] [%] | level of covalent labeling to C95 (percent of labeling), GDP, 24 h [1] [%] | level of covalent labeling to C95 (percent of labeling), GppNHp, 3 h [2] [%] | level of covalent labeling to C95 (percent of labeling), GppNHp, 6 h [2] [%] | level of covalent labeling to C95 (percent of labeling), GppNHp, 24 h [2] [%] |
| --- | --- | --- | --- | --- | --- | --- |
| CC(C)C[C@H](NC(=O)c1cn(C)c2ccc(Br)cc12)C(=O)[C@@]1(C)CO1 | 0 | 0 | 0 | 0 | 0 | 0 |
| Cn1nc(C(=O)NCc2cn(C[C@H]3CO3)nn2)c2cc(Br)ccc21 | 3 | 10 | 49 | 0 | 2 | 10 |
| COc1ccc(Cl)cc1C(=O)N[C@H]1COC1=O | 87 | 91 | 89 | 76 | 81 | 78 |
| CC(C)Cc1ccc(C(C)C(=O)NCc2cn(C[C@@H]3CO3)nn2)cc1 (stereo partly drawn) | 36 | 73 | 98 | 0 | 2 | 17 |
| CC(=O)Oc1ccccc1C(=O)NCc1cn(C[C@@H]2CO2)nn1 | 5 | 12 | 45 | 2 | 3 | 14 |
| Cn1cc(C(=O)NCc2cn(C[C@@H]3CO3)nn2)c2cc(Br)ccc21 | 19 | 42 | 91 | 3 | 4 | 22 |
| O=C(NCc1cn(C[C@@H]2CO2)nn1)c1c[nH]c2ccccc12 | 7 | 18 | 72 | 2 | 4 | 25 |
| Cn1nc(C(=O)NCc2cn(C[C@H]3CO3)nn2)c2ccccc21 | 0 | 0 | 0 | 0 | 0 | 0 |

— US11358940B2, “K-Ras modulators” (THE REGENTS OF THE UNIVERSITY OF CALIFORNIA, priority 2017, dated 2022)
